# Source: US20190374601A1, “METHODS FOR TREATING FUNGAL INFECTIONS” (priority 2017, published 2019)
# Starred links: 1 amine or outer side, 2 acyl side, 3 side chain; linkers in the order of their positions; H or OH if unused. Positions of bridges follow the written chain, without caps; N, C: chain ends. Non-standard residues stand in square brackets, D forms with d. Residues, ends and D or L forms follow the SMILES beside them. *: point of attachment. Orn(4R-OH,5R-OCH2CH2NMe3+) = C[N+](C)(C)CCO[C@@H](N[*:3])[C@H](O)C[C@H](N[*:1])C(=O)[*:2]; pTerphenylCO(4''-OnC5H11) = CCCCCOc1ccc(-c2ccc(-c3ccc(C(=O)*)cc3)cc2)cc1; hTyr(3S-OH,4S-OH) = N[C@H](C(=O)O)[C@H](O)[C@@H](O)c1ccc(O)cc1; Pro(3S-OH,4S-Me) = C[C@H]1CN[C@H](C(=O)O)[C@H]1O; Hyp = O=C(O)[C@@H]1C[C@@H](O)CN1
# What was measured:
# Type in all cases: in vivo
# [1] = system: T. mentagrophytes ATCC 24953; assay: Clinical evaluation of infected skin, T. mentagrophytes dermatophytosis guinea pig model, Example 1; details: for Percent Efficacy Clinical: evaluated study day 10, relative to vehicle control
# Description: (§1) A request was made to the Animal Resource Center (ARC) at Case Western Reserve University to order the required number of male albino Harlan-Sprague-Dawley Guinea-Pigs (San Diego, Calif.) with a body weight of 450-500 g. Animals were allowed to acclimate for a minimum of 5 days prior to use. Environmental controls for the animal room were set to maintain a temperature of 16 to 22° C., a relative humidity of 30-70%, and a 12:12 light-dark cycle.
# (§2) T. mentagrophytes ATCC 24953 was used as the infecting fungus. This strain was selected because it can cause skin infection and results in inflammatory reaction.
# (§3) T. mentagrophytes (from frozen stock) was sub-cultured on Potato Dextrose Agar plates and incubated at 30° C. for 5-7 days. The colonies were scraped from the plates using sterile normal saline (NaCl 0.85%) solution. After washing for three times with sterile saline the conidia were re-suspended in the same solution. Ten-fold dilutions of conidia suspension were prepared and counted using a hemacytometer. Working suspension of conidia was prepared at a final concentration of 1×10^7 Colony Forming Units (CFUs)/100 μL in normal saline.
# (§4) Each animal was anesthetized with a cocktail of xylazine and ketamine: 0.2 mL intramuscularly. Using an electric shaver, hair was clipped on left side of the guinea pig back. A closer shave was done with a disposable razor. Using a stencil, a square of 2.5 cm×2.5 cm was marked. The marked skin area was abraded with sterile fine grit sandpaper. A cell suspension containing 1×10^7 conidia in 100 μL was applied and rubbed thoroughly on the abraded skin.
# (§5) Beginning two hours post inoculation, animals were treated subcutaneously (SQ) for CD101 and orally (PO) terbinafine once daily for a period of nine days, or once a week on days 1 and 8.
# (§6) Study Day 1: Infected the animals with T. mentagrophytes and begin treatments.
# (§7) Study Day 9 (treatment day 9): End treatments.
# (§8) Study Day 10: Clinical evaluation of the four quadrants in the marked area was done. Hair samples were obtained from each quadrant (10 per quadrant). Hairs were planted in Potato Dextrose Agar, and incubated for 48 h for mycological evaluation. Procedures for clinical and mycological evaluations are described below.
# (§9) CD101 was administered SQ in 0.3 mL, while the terbinafine was given orally in 0.3 mL. Vehicle treated group was also included.
# Clinical assessment of local changes of the infected skin area was scored as follows:
# 1=Few slightly erythematous places on the skin
# 2=Well-defined redness, swelling with bristling hairs.
# 3=Large areas or marked redness incrustation, scaling, bald patches, ulcerated in places.
# 4=Partial damage to the integument and loss of hair
# 5=Extensive damage to the integument and complete loss of hair at the site of infection.
# Any other local skin reactions were noted. The assessment of clinical evaluation in the change of scores per treatment group is expressed as percentage relative to the vehicle control group of animals using the following formula:
# where, T=Scores in the test group. K=Scores in the untreated control
# [2] = Mortality, clinical observations and body weights after subcutaneous injection in cynomolgus monkeys; details: 30, 60, 120 mg/kg/dose SC once every 3 days (5 doses)
# Description: Dose levels were 30, 60, and 120 mg/kg/dose for Groups 2, 3, and 4, respectively. […] The dose volumes were 1.2, 0.3, 0.6, and 1.2 mL/kg spread evenly over 4, 1, 2, and 4 dose sites for Groups 1-4, respectively, on each day of dosing. The control and 120 mg/kg/dose groups each consisted of 5 males and 5 females, and the 30 and 60 mg/kg/dose groups each consisted of 3 males and 3 females.
# The animals were observed twice daily for mortality and moribundity. Clinical examinations were performed once daily for at least 6 consecutive days, including the day of randomization, prior to randomization, prior to dosing, 1-2 hours postdosing, once daily on nondosing days, and once daily during the recovery period. Detailed physical examinations were performed at least weekly during the acclimation period until randomization, on the day of randomization, weekly (±2 days) during the study period, and on the day of the scheduled necropsies. […] Individual body weights were recorded weekly (±2 days). […] Clinical pathology parameters (hematology, coagulation, serum chemistry, and urinalysis) were analyzed during acclimation prior to randomization (Study Day −15), and on the day of the primary (Study Day 17) and recovery (Study Day 45) necropsies. […]
# [3] = system: T. mentagrophytes ATCC 24953; assay: Hair root invasion test (mycological evaluation), T. mentagrophytes dermatophytosis guinea pig model, Example 1; details: evaluated study day 10, relative to vehicle control
# Description: as §1, §2, §3, §4, §5, §6, §7, §8, §9
# Hair samples were removed with a sterile forceps from four quadrants. Ten hair samples from each quadrant were inoculated onto the corresponding quadrant on the Potato Dextrose agar plate and incubated at 30° C. for 2 days. The fungal growth at the hair root was examined under a stereomicroscope. The effectiveness of a compound in reducing the number of mycologically positive hair sample per treated group is expressed as percentage relative to the vehicle control group of animals using the following formula:
# where, T=Positive hair in the test group, K=Positive hair in the Untreated control.
# [4] = 35 mg/kg SQ daily for nine days
# [5] = 35 mg/kg SQ once a week (days 1 and 8)
smiles,measurement,setting,value
"CCCCCOc1ccc(-c2ccc(-c3ccc(C(=O)N[C@H]4C[C@@H](O)[C@@H](OCC[N+](C)(C)C)NC(=O)[C@@H]5[C@@H](O)[C@@H](C)CN5C(=O)[C@H]([C@@H](C)O)NC(=O)[C@H]([C@H](O)[C@@H](O)c5ccc(O)cc5)NC(=O)[C@@H]5C[C@@H](O)CN5C(=O)[C@H]([C@@H](C)O)NC4=O)cc3)cc2)cc1 [CD101] ({pTerphenylCO(4''-OnC5H11)}-[Orn(4R-OH,5R-OCH2CH2NMe3+)]T[Hyp][hTyr(3S-OH,4S-OH)]T[Pro(3S-OH,4S-Me)]; lactam 1-C)",Percent Efficacy Clinical,[1]; [4],84.0%
same,Percent Efficacy Clinical,[1]; [5],78.7%
same,clinical signs versus vehicle control group,"[1]; guinea pigs, 35 mg/kg SQ daily and weekly",fewer clinical signs than the vehicle control group beginning on day 5 post inoculation
same,injection site reaction,"[1]; guinea pigs, 35 mg/kg SQ daily or once a week",no bruising or redness was noted at the injection site
same,survival,[2],All animals survived to the scheduled necropsies
same,test article-related clinical observations and effects on body weights,[2],no test article-related clinical observations or effects on body weights
same,Percent Efficacy Mycological,[3]; [4],88.0%
same,Percent Efficacy Mycological,[3]; [5],85.5%
